Results reported in article PMC8795149, “Characterization of a novel non-steroidal glucocorticoid receptor agonist optimized for topical treatment” (Scientific Reports, 2022).

Legend:
[1] = test system: spleen weight, plasma osteocalcin, body weight; assay: TPA-induced skin inflammation in mice, systemic side effects; type: in vivo, mouse; conditions: for Reduction of body weight gain, spleen weight, and plasma osteocalcin levels: indicating systemic exposure; for Osteocalcin concentration ID50 / Osteocalcin concentration Imax: plasma; for Spleen weight ID50 / Spleen weight Imax: topical; for Suppression of osteocalcin levels at efficacious doses on skin inflammation: mouse TPA model
Method: (§1) Female Balb/c mice of 7 to 8 weeks old were obtained from Charles River, Germany and acclimatized for at least 1 week. Skin inflammation was induced by repeated topical application of TPA (20 μL of 0.01% TPA in acetone; 10 μL to each side of ear) on days 1, 3, 5, 8 and 10.
(§2) Treatments were performed by topical application of either vehicle (90% acetone, 10% transcutol), Treatments were applied twice daily on days 8, 9, 10, and once on day 11 (20–10 μL to each side of ear) with at least 5 h between the first and second treatment. TPA challenge on days 8 and 10 was performed at least 1 h after the first treatment. On day 11, animals were sacrificed 2 h after the last dosing. Blood was sampled by cardiac puncture from animals anaesthetized with isoflurane. Thereafter, ear biopsies were taken with a biopsy punch (8 mm diameter), weighed and stored at – 80 °C. Plasma osteocalcin levels were analyzed by EIA (rat-MID, IDS, UK). Effective inhibitory doses (ID50) were determined from a sigmoid I(max) model in Phoenix64, Pharsight, Certara. Therapeutic Index (TI) was calculated either as ID50 for spleen weight reduction or ID50 for blood osteocalcin concentrations, divided by ID50 for ear weight reduction.

[2] = test system: LPS-induced TNF-alpha release in PBMCs; assay: TNF-alpha inhibition assay, pig PBMCs; type: cell-based; conditions: for EC50: geometric mean
Method: (§3) PMBCs were isolated from human buffy coats or animal whole blood (EDTA-treated). Buffy coats from anonymized healthy adult blood donors were obtained from the Blood Bank of the National University Hospital Copenhagen in accordance with national legislation. Whole blood from mice (obtained from Charles River) was sampled at the animal facility at LEO Pharma and whole blood from pigs was sourced from ScanTox. Test compounds and PBMCs were incubated with 1 µg/ml LPS (Sigma) overnight at 37 °C in HEPES and Glutamax-containing RPMI medium supplemented with either 0.5% human serum albumin (human PBMCs) or 10% fetal bovine serum (mouse and pig PBMCs) and penicillin/streptomycin. TNF-alpha was measured using AlphaLISA (Perkin Elmer).
(§4) IC50 of test compounds was determined by 10-point titrations in duplicates. IC50 values and other parameters were calculated by sigmoidal curve fitting in Assay Explorer.

[3] = test system: TPA-induced skin inflammation; assay: TPA-induced skin inflammation in mice, efficacy; type: in vivo; conditions: TPA mouse model; for Ear biopsy weight ID50 (API concentration in formulation) / Ear biopsy weight Imax: topical, CV (%) in brackets
Method: as §1, §2
RNA was extracted from biopsies and qPCR was performed using TaqMan gene expression assays (Fkbp5-Mm00487406_m1, Tsc22d3 (Gilz)-Mm00726417_s1, Actb-Mm00607939_s1, Pgk1-Mm00435617_m1, Tbp-Mm00446971_m1, Ubc-Mm02525934_g1). Gene expression of Fkbp5 and Tsc22d3 (Gilz) was normalized to the geometric mean of the reference genes Actb, Pgk1, Tbp and Ubc.

GR = molecular target: T1, GR (Homo sapiens, UniProt P04150); assay: Transactivation assay, MMTV promoter luciferase in HeLa cells; type: cell-based; set-up: endogenous in cells; host or cells: HeLa (ATCC) stably expressing MMP1- or MMTV-promoter luciferase; conditions: for EC50: 20 h, geometric mean
T1 sequence (P04150 1-777): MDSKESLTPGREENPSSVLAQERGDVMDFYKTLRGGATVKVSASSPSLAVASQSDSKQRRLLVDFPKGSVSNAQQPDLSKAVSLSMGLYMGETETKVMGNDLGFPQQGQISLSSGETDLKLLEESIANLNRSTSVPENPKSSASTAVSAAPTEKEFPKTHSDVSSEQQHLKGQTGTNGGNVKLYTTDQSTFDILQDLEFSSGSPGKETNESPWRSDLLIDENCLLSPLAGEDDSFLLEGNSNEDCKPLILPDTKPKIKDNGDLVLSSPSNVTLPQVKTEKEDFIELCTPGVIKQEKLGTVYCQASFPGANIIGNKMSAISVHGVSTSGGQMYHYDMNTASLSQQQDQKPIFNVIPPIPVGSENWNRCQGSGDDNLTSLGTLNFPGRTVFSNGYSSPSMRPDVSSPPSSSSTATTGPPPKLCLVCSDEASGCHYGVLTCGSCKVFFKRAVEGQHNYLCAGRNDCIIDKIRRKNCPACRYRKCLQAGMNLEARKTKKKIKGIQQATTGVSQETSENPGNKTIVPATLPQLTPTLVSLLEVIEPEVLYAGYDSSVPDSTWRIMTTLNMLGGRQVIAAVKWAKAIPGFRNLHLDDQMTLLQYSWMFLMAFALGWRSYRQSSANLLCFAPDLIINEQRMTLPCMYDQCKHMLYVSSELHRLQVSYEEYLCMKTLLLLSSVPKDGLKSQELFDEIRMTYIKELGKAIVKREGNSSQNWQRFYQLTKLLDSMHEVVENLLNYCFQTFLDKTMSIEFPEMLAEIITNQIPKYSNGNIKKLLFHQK
Method: A HeLa cell line stably expressing luciferase under the control of the mouse mammary tumour virus (MMTV) promoter was generated. When the GR is activated by addition of a GR agonist, it forms a homodimer and binds to the MMTV promoter, t inducing transcription of the luciferase reporter gene. Briefly, cells were incubated with test compounds in culture medium containing charcoal-filtered fetal bovine serum for 20 h 37 °C 5% CO2. Finally, luciferase activity was detected luminometrically after addition of specific substrate to the cells.
as §4

[4] = test system: LPS-induced TNF-alpha release in PBMCs; assay: TNF-alpha inhibition assay, mouse PBMCs; type: cell-based; conditions: for EC50: geometric mean
Method: as §3, §4

[5] = test system: 8 ion channels, 40 kinases, 2 phosphatases, up to 163 G-protein coupled receptors; assay: Off-target panels (Eurofins IonChannelProfiler, KinaseProfiler, GPCRProfiler); conditions: 10 µM
[6] = Stability in whole blood (minipig); type: in vitro ADME; conditions: 0.1 µM, 37 °C
Method: Compounds were incubated in diluted fresh rat, dog, minipig or human whole blood (heparin stabilized, 50% blood and 50% phosphate buffer with 1% bovine serum albumin) for 120 min at 0.1 µM, at 37 °C and the half-lives were determined. Samples were taken at 0, 15, 30, 60 and 120 min, and reactions were terminated by addition of acetonitrile containing analytical internal standard (IS). Test compound depletion was determined using time-of-flight mass spectrometry in positive ion mode (TOF–MS; AB Sciex API5600). Elimination rate constants (k) were calculated from peak areas and the half-lives was determined (t½ = ln2/k).

[7] = TPA mouse model, CV (%) in brackets

Compound	Therapeutic index (Osteocalcin ID50/Ear ID50) ([1]; TPA mouse model)	Therapeutic index (Spleen ID50/Ear ID50) ([1]; TPA mouse model)	Reduction of body weight gain, spleen weight, and plasma osteocalcin levels ([1]; TPA mouse model)	Osteocalcin concentration ID50 [1, 7]	Osteocalcin concentration Imax [1, 7]	Spleen weight ID50 [1, 7]	Spleen weight Imax [1, 7]	Suppression of osteocalcin levels at efficacious doses on skin inflammation [1]	Emax ([2]; Sus scrofa, PBMC) [%]	EC50 ([2]; Sus scrofa, PBMC) [nM]	Ear biopsy weight ID50 (API concentration in formulation) [3]	Ear biopsy weight Imax [3]	Emax (GR; MMTV promoter, HeLa cells) [%]	EC50 (GR; MMTV promoter, HeLa cells) [nM]	Emax ([4]; PBMC) [%]	EC50 ([4]; PBMC) [nM]	other results
CCC(=O)O[C@]1(C(=O)CCl)[C@@H](C)C[C@H]2[C@@H]3CCC4=CC(=O)C=C[C@]4(C)[C@@]3(F)[C@@H](O)C[C@@]21C [CP, Clobetasol Propionate]	43	17	dose-dependent reduction	64 (17) µg/mL	88 (4) %	26 (27) µg/mL	70 (8) %	did	95	0.38	1.5 (69) µg/mL	67 (14) %	110	0.25	95	0.15	
C[C@H](NC(=O)[C@H]1CCCO1)[C@H](Oc1ccc(C(=O)O[C@H]2CCCN(C(=O)[C@H]3COC(=O)C3)C2)cc1)c1ccc(C2CC2)cc1 [LEO 134310]	> 200	49	not—or only to a lesser extent				42 (56) %	did not suppress osteocalcin levels			500 (250) µg/mL	64 (39) %		410			Off-target activity in ion channel, kinase, phosphatase and GPCR panels [5]: no off-target activity was identified; Higher therapeutic index (osteocalcin ID50 to ear weight ID50) compared to CP and BMV ([1]; TPA mouse model): > 5 fold; Higher therapeutic index (spleen weight ID50 to ear weight ID50) compared to CP and BMV ([1]; TPA mouse model): 2 fold; Spleen weight ID50 (extrapolated) ([1]; TPA mouse model, ID50 could not be determined, value extrapolated, CV (%) in brackets): 25,000 (110) µg/mL; Inhibition of LPS-induced TNF-alpha release Emax [2]: 96%; EC50 [2]: 3.2 nM; Less potent than BMV, reduction in ear biopsy weight [3]: ~100 fold; Less potent than CP, reduction in ear biopsy weight [3]: approximately 300 fold; Transactivation Emax (GR; MMTV promoter, HeLa cells): 95%; Transactivation EC50 relative to concentration needed for transrepression (GR; higher concentration than needed for transrepression): more than 300 fold; Inhibition of LPS-induced TNF-alpha release Emax [4]: 102%; EC50 [4]: 0.58 nM; In vitro (blood) half-life [6]: 3.8 (n = 1) min
CCCCC(=O)O[C@]1(C(=O)CO)[C@@H](C)C[C@H]2[C@@H]3CCC4=CC(=O)C=C[C@]4(C)[C@@]3(F)[C@@H](O)C[C@@]21C [BMV, Betamethasone Valerate]	39	21	dose-dependent reduction	200 (24) µg/mL	74 (10) %	110 (25) µg/mL	58 (9) %	did	99	1.5	5.1 (73) µg/mL	69 (17) %	120	2.6	95	0.22	
